According to patent publication US20080103123A1, “New compounds” (Biovitrum, priority 2006, published 2008):
Where two headings read alike, the source gives them in different places.

Biological target: T1, human GPR119 receptor (Homo sapiens, UniProt Q8TDV5)
T1 construct: expressed in transfected cells
T1 sequence (Q8TDV5 1-335): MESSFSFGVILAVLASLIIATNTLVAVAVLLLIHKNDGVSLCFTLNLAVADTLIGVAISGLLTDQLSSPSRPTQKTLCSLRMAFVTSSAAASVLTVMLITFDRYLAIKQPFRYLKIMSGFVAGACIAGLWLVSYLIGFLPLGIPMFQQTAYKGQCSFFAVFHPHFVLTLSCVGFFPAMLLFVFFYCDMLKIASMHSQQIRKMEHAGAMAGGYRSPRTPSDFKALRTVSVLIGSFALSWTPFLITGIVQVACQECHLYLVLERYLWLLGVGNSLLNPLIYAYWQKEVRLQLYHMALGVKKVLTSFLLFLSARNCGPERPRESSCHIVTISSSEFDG
Experiment: Human GPR119 Activity Assay (cAMP, HTRF)
Assay type: cell-based
Procedure: Human GPR119 Activity Assay
Agonists to the human GPR119 receptor were characterized by measuring human GPR119 receptor-mediated stimulation of cyclic AMP (cAMP) in HEK 293 cells expressing the human GPR119 receptor.
Briefly, cAMP content was determined using a cAMP kit based on HTRF technology (Homogeneous Time-Resolved Fluorescence, Cisbio Cat. no. 62AM2PEC). HEK293 cells stably expressing the human GPR119 receptor (HEK293-hGPR119 cells) were cultured in DMEM (Gibco # 31966-021) supplemented with 10% Bovine Calf Serum (Hyclone # SH30072.03), and, 500 μg/mL Hygromycin B (Roche Diagnostics 843555). At 80% confluency, cells were detached using Trypsine and aliquoted at a density of 5×10^6 cells/mL in freezing medium (DMEM (Gibco # 31966-021), 20% BCS (Hyclone # SH30072.03), 10% DMSO (Sigma #D2650) and stored at −135° C. On the experimental day, HEK293-hGPR119 cells were thawn and diluted to 0.4×10^6 cells/mL in assay buffer (1×HBSS (Gibco Cat. no. 14025-049), 20 mM Hepes (Gibco Cat. no. 15630-056), 0.1% BSA, pH 7.4) and incubated with test substances for 20 min at room temperature. After addition of HTRF reagents diluted in lysis buffer, the 96- or 384-well plates were incubated 1 hour, followed by measuring the fluorescence ratio at 665 nm/620 nm. Test substances was diluted in compound buffer (1×HBSS (Gibco Cat. no. 14025-049), 20 mM Hepes (Gibco Cat. no. 15630-056), 0.1% BSA, 2 mM IBMX (Sigma-Aldrich Cat. No. 17018, pH 7.4). The potency of the agonist was quantified by determine the concentration that cause 50% activation of hGPR119 evoked increase in cAMP, EC50.

[1] = stimulation of cAMP in HEK293 cells stably expressing human GPR119, 20 min at room temperature, HTRF, read-out: EC50 (μM), Agonist potency at the human GPR119

SMILES	EC50 [1] [µM]	EC50 [µM]
CS(=O)(=O)c1ccc(-c2ccc(OCC3CCN(C(=O)OCc4ccccc4)CC3)nc2)cc1 [EXAMPLE A2, Benzyl 4-[({5-[4-(methylsulfonyl)phenyl]pyridin-2-yl}oxy)methyl]piperidine-1-carboxylate]	0.11	
CN(Cc1ccc(-c2ccc(S(C)(=O)=O)cc2)cn1)C1CCN(C(=O)OC(C)(C)C)CC1 [EXAMPLE A39, tert-Butyl 4-[methyl({5-[4-(methylsulfonyl)phenyl]pyridin-2-yl}methyl)amino]-piperidine-1-carboxylate]	0.139	
CN(Cc1ccc(-c2ccc(S(C)(=O)=O)cc2)nc1)C1CCN(C(=O)OC(C)(C)C)CC1 [EXAMPLE B2, tert-Butyl 4-[methyl({6-[4-(methylsulfonyl)phenyl]pyridin-3-yl}methyl)amino]-piperidine-1-carboxylate]		0.022
